Experimental data published in US4863918A, “Enamine quaternary compounds, methods of making and their use as muscle relaxants” (BOC, Inc., priority 1988, dated 1989).

Tested on: paw twitch
Test: Twitch depression (muscle relaxant effect) in anesthetized rabbits; rabbit paw twitch
Assay type: in vivo, New Zealand White rabbits
Conditions: rabbit paw twitch, at indicated dose
Description: [The procedure below names another organism; the source lists this organism under the same test.] Mongrel dogs were injected with 50 mg/kg of pentobarbital until the onset of anesthesia as determined by the eyeblink reflex test. The injectable solutions prepared above were administered intravenously to the anesthesized mongrel dogs and measurements were made of the muscle relaxant effect including maximum twitch depression, onset, duration and recovery time in a clinically known manner. Each of the subjects were compared with a control animal receiving an injection of distilled water.
The same compound of the present invention as in
A number of compounds in accordance with the present invention were tested for their neuromuscular blockade Properties. Specifically, the acid addition salts of the compounds were dissolved in sterile water for injection.

Which Onset (Table VI) does the source give for `CC1CC[N+](=C2C=C(N3CCC4(CC3)OCC3(CO4)COC4(CCN(C5=CC(=[N+]6CCC(C)CC6)CC(C)(C)C5)CC4)OC3)CC(C)(C)C2)CC1` (centres unmarked) [compound 28] here?
The Onset was 49.9 s.

How did the Onset (Table VIII) turn out when `CC1(C)CC(N2CCCC3(CC2)OCC2(CO3)COC3(CCCN(C4=CC(=[N+]5CCCCCC5)CC(C)(C)C4)CC3)OC2)=CC(=[N+]2CCCCCC2)C1` (centres unmarked) [No. 13] was run?
The Onset was 88.3 s.

For `CC1(C)CC(N2CCC3(CC2)OCC2(CO3)COC3(CCN(C4=CC(=[N+]5CCC(c6ccccc6)CC5)CC(C)(C)C4)CC3)OC2)=CC(=[N+]2CCC(c3ccccc3)CC2)C1` (centres unmarked) [compound 31], which Onset (Table VI, in s) is on record?
Its Onset is 105.6.

Which Onset (Table VI) does the source give for `CC1(C)CC(N2CCC3(CC2)OCC2(CO3)COC3(CCN(C4=CC(=[N+]5CC6CCC(CC6)C5)CC(C)(C)C4)CC3)OC2)=CC(=[N+]2CC3CCC(CC3)C2)C1` [compound 17] here?
The Onset was 49.6 s.

How did the Onset (Table VI) turn out when `CC[N+](Cc1cccs1)=C1C=C(N2CCC3(CC2)OCC2(CO3)COC3(CCN(C4=CC(=[N+](CC)Cc5cccs5)CC(C)(C)C4)CC3)OC2)CC(C)(C)C1` [compound 13] was run?
The Onset was 88.1 s.

`CC1(C)CC(N2CCC3(CC2)OCC2(CO3)COC3(CCN(C4=CC(=[N+]5CCCCC5)CC(C)(C)C4)CC3)OC2)=CC(=[N+]2CCCCC2)C1` [compound 50] was tested. Which Onset (Table VI) did it give?
Its Onset is 59.9 s.

Which Onset (Table VI) does the source give for `C=CC[N+](CC=C)=C1C=C(N2CCC3(CC2)OCC2(CO3)COC3(CCN(C4=CC(=[N+](CC=C)CC=C)CC(C)(C)C4)CC3)OC2)CC(C)(C)C1` [compound 35] here?
Its Onset is 61.9 s.

Which Onset (Table VI) does the source give for `CC1(C)CC(N2CCC3(CC2)OCC2(CO3)COC3(CCN(C4=CC(=[N+]5CCCCCCC5)CC(C)(C)C4)CC3)OC2)=CC(=[N+]2CCCCCCC2)C1` [compound 20] here?
Its Onset is 57.5 s.

Which Onset (Table VII) does the source give for `CC1(C)CC(N2CCCC3(C2)OCC2(CO3)COC3(CCCN(C4=CC(=[N+]5CCCC6(CC5)OCCO6)CC(C)(C)C4)C3)OC2)=CC(=[N+]2CCCC3(CC2)OCCO3)C1` (centres unmarked) [No. 13] here?
The Onset was 36.5 s.

With `CC1(C)CC(N2CCC3(CC2)OCC2(CO3)COC3(CCN(C4=CC(=[N+]5CCCC5)CC(C)(C)C4)CC3)OC2)=CC(=[N+]2CCCC2)C1` [compound 46] as the molecule, how does the Onset (Table VI) read?
Its Onset is 62.8 s.

For `CC1(C)CC(N2CCC3(CC2)OCC2(CO3)COC3(CCN(C4=CC(=[N+](CC5CC5)CC5CC5)CC(C)(C)C4)CC3)OC2)=CC(=[N+](CC2CC2)CC2CC2)C1` [compound 52], which Onset (Table VI) is on record?
The Onset was 48.5 s.

With `COC1C[N+](=C2C=C(N3CCCC4(C3)OCC3(CO4)COC4(CCCN(C5=CC(=[N+]6CCC(OC)(OC)C(OC)C6)CC(C)(C)C5)C4)OC3)CC(C)(C)C2)CCC1(OC)OC` (centres unmarked) as the molecule, how does the Onset (Table VII) read?
The Onset was 44.4 s.

Which Onset (Table VI) does the source give for `CCC[N+](CC1CC1)=C1C=C(N2CCC3(CC2)OCC2(CO3)COC3(CCN(C4=CC(=[N+](CCC)CC5CC5)CC(C)(C)C4)CC3)OC2)CC(C)(C)C1` [compound 21] here?
Its Onset is 47.7 s.

How did the Onset (Table VIII) turn out when `CC1C[N+](=C2C=C(N3CCCC4(CC3)OCC3(CO4)COC4(CCCN(C5=CC(=[N+]6CCC7(OCCO7)C(C)C6)CC(C)(C)C5)CC4)OC3)CC(C)(C)C2)CCC12OCCO2` (centres unmarked) [No. 11] was run?
Its Onset is 62.1 s.

How did the Onset (Table VI) turn out when `CCOC(=O)C[N+](CC)=C1C=C(N2CCC3(CC2)OCC2(CO3)COC3(CCN(C4=CC(=[N+](CC)CC(=O)OCC)CC(C)(C)C4)CC3)OC2)CC(C)(C)C1` was run?
The Onset was 39 s.

`CC1(C)CC(N2CCC3(CC2)OCC2(CO3)COC3(CCN(C4=CC(=[N+](CC5CC5)CC(F)(F)F)CC(C)(C)C4)CC3)OC2)=CC(=[N+](CC2CC2)CC(F)(F)F)C1` [compound 51] was tested. Which Onset (Table VI) did it give?
The Onset was 51 s.

Which Onset (Table VI) does the source give for `CC1(C)CC(N2CCC3(CC2)OCC2(CO3)COC3(CCN(C4=CC(=[N+]5CCOCC5)CC(C)(C)C4)CC3)OC2)=CC(=[N+]2CCOCC2)C1` [compound 49] here?
Its Onset is 58.8 s.

`CC1=C(N2CCC3(CC2)OCC2(CO3)COC3(CCN(C4=C(C)C(=[N+]5CCCCCC5)CC4)CC3)OC2)CCC1=[N+]1CCCCCC1` [compound 38] was tested. Which Onset (Table VI, in s) did it give?
Its Onset is 100.0.

`CCC[N+](CC1CC1)=C1C=C(N2CCC3(CC2)OCC2(CO3)COC3(CCN(C4=CC(=[N+](CCC)CC5CC5)CC(C)C4)CC3)OC2)CC(C)C1` (centres unmarked) [compound 56] was tested. Which Onset (Table VI) did it give?
Its Onset is 62.3 s.

How did the Onset (Table VI) turn out when `CC[N+](CC)=C1C=C(N2CCC3(CC2)OCC2(CO3)COC3(CCN(C4=CC(=[N+](CC)CC)CC(C)C4)CC3)OC2)CC(C)C1` (centres unmarked) [compound 41] was run?
The Onset was 51 s.
